Activity calls are given as the source filed them. No cut-off for these calls is given here.
Legend:
[1] = test system: Mus musculus; experiment: Antithrombotic activity in calcein-labelled platelet-mediated ferric chloride-induced arterial injury thrombosis C57BL/6J mouse model assessed as average time to occlusive thrombosis at 300 mg/kg, po administrated twice a day measured upto 7 days (reference value: 7.9 +/- 0.7 min); type: functional; details: time day <=7
[2] = test system: Platelet; experiment: Inhibition of thrombin-stimulated human platelet aggregation measured after 3 hrs by scanning electron microscopy with 0.01 to 1 U/ml varying concentration of thrombin by lumi-aggregometer; type: functional, tissue-based
[3] = Toxicity in C57BL/6J mouse assessed as change in immature platelet fraction at 200 mg/kg twice daily for 60 days relative to control; type: organism-based; details: in vivo, 1440 h, time 60 day
[4] = Suppression of glycoprotein IIb/IIIa activation in thrombin-stimulated human platelets by measuring activated GPIIb/IIIa at 0.05 mM measured after 3 hrs by PAC-1-FITC dye based flow cytometry (reference value: 90.1%); type: functional; details: Platelet
[5] = Suppression of glycoprotein IIb/IIIa activation in thrombin-stimulated human platelets by measuring activated GPIIb/IIIa at 0.10 mM measured after 3 hrs by PAC-1-FITC dye based flow cytometry (reference value: 90.1%); type: functional; details: Platelet, at 0.1 mM
[6] = test system: Mus musculus; experiment: Antithrombotic activity in calcein-labelled platelet-mediated ferric chloride-induced arterial injury thrombosis C57BL/6J mouse model assessed as thrombus length at 200 mg/kg, po administrated twice a day measured upto 7 days (reference value: 4.4 +/- 0.4 mm); type: functional; details: time day <=7
[7] = Toxicity in calcein-labelled platelet-mediated ferric chloride-induced arterial injury thrombosis po dosed C57BL/6J mouse model assessed as change in fibrinogen treated twice a day measured upto 7 days; type: organism-based; details: in vivo, 168 h, time <=7 day
[8] = Toxicity in C57BL/6J mouse assessed as change in thrombo-cytocrit at 200 mg/kg twice daily for 60 days relative to control; type: organism-based; details: in vivo, 1440 h, time 60 day
[9] = Toxicity in C57BL/6J mouse assessed as change in potassium level at 200 mg/kg twice daily for 60 days relative to control; type: organism-based; details: in vivo, 1440 h, time 60 day
[10] = Toxicity in calcein-labelled platelet-mediated ferric chloride-induced arterial injury thrombosis po dosed C57BL/6J mouse model assessed as change in coagulation factor V treated twice a day measured upto 7 days; type: organism-based; details: in vivo, 168 h, time <=7 day
[11] = Suppression of P-selectin expression in thrombin-stimulated human platelets by measuring CD62P positive platelets at 0.01 mM after 3 hrs by flow cytometry analysis (reference value: 78.2%); type: functional; details: Platelet
[12] = test system: Platelet; experiment: Cytotoxicity against human platelet assessed as extracellular LDH levels changes at 1 mM incubated for 1 hrs; type: cell-based; details: 1000 µM
[13] = Toxicity in C57BL/6J mouse assessed as change in platelet distribution width at 200 mg/kg twice daily for 60 days relative to control; type: organism-based; details: in vivo, 1440 h, time 60 day
[14] = Suppression of P-selectin expression in thrombin-stimulated human platelets by measuring CD62P positive platelets at 1 mM after 3 hrs by flow cytometry analysis (reference value: 78.2%); type: functional; details: Platelet
[15] = Toxicity against C57BL/6J mouse assessed as liver morphology at 200 mg/kg twice a day measured after 60 days; type: organism-based; details: in vivo, 1440 h, time 60 day
[16] = Cmax in Sprague-Dawley rat at 200 mg/kg, po compound dissolved in DMSO measured after 2 hr by HPLC-MS/MS analysis; type: ADME, organism-based; set-up: route oral, time 2 hrs, dose 200 mg/kg; details: in vivo
[17] = test system: Mus musculus; experiment: Antithrombotic activity in transient focal cerebral ischemic mouse model occlusion induced 60 mins of the right middle cerebral artery followed by reperfussion 23 hrs assessed as improve in damaged neural function at 200 mg/kg, po twice daily for 7 days; type: functional, organism-based; details: time 7.0 day
[18] = Suppression of glycoprotein IIb/IIIa activation in thrombin-stimulated human platelets by measuring activated GPIIb/IIIa at 0.01 mM measured after 3 hrs by PAC-1-FITC dye based flow cytometry (reference value: 90.1%); type: functional; details: Platelet
[19] = test system: Mus musculus; experiment: Antithrombotic activity in calcein-labelled platelet-mediated ferric chloride-induced arterial injury thrombosis C57BL/6J mouse model assessed as thrombus weight at 100 mg/kg, po administrated twice a day measured upto 7 days (reference value: 3.3 +/- 0.3 mg); type: functional; details: time day <=7
[20] = test system: Mus musculus; experiment: Antithrombotic activity in calcein-labelled platelet-mediated ferric chloride-induced arterial injury thrombosis C57BL/6J mouse model assessed as thrombus weight at 200 mg/kg, po administrated twice a day measured upto 7 days (reference value: 3.3 +/- 0.3 mg); type: functional; details: time day <=7
[21] = test system: Mus musculus; experiment: Antithrombotic activity in transient focal cerebral ischemic mouse model occlusion induced 60 mins of the right middle cerebral artery followed by reperfussion 23 hrs assessed as activated platelets with red blood cells and loose textured stroke thrombi at 200 mg/kg, po twice daily for 7 days by TTC staining based immuno histochemistry analysis; type: functional, organism-based; details: time 7.0 day
[22] = Inhibition of thrombin-stimulated human platelet aggregation by measuring aggregation at 0.50 mM measured after 4 hrs by scanning electron microscopy; type: functional; set-up: scale not given: the % may be the effect or the level left; details: dose 0.5 mM
[23] = Inhibition of thrombin-stimulated human platelet aggregation by measuring aggregation at 0.05 mM measured after 3 hrs by scanning electron microscopy (Rvb= 87.2 +/- 4.0%); type: functional; set-up: scale not given: the % may be the effect or the level left
[24] = test system: Mus musculus; experiment: Antithrombotic activity in calcein-labelled platelet-mediated ferric chloride-induced arterial injury thrombosis C57BL/6J mouse model assessed as average time to occlusive thrombosis at 200 mg/kg, po administrated twice a day measured upto 7 days (reference value: 7.9 +/- 0.7 min); type: functional; details: time day <=7
[25] = Toxicity in C57BL/6J mouse assessed as change in platelet ratio at 200 mg/kg twice daily for 60 days relative to control; type: organism-based; details: in vivo, 1440 h, time 60 day
[26] = Toxicity in calcein-labelled platelet-mediated ferric chloride-induced arterial injury thrombosis po dosed C57BL/6J mouse model assessed as change in coagulation factor II treated twice a day measured upto 7 days; type: organism-based; details: in vivo, 50 mg/kg, 168 h, time <=7 day
[27] = test system: Mus musculus; experiment: Antithrombotic activity in collagen-epinephrine induced pulmonary thromboembolism mouse model assessed as protection rate at 200 mg/kg, ig twice a day for 7 days followed by administered collagen-epinephrine relative to control; type: functional; details: time 7 day
[28] = Toxicity in C57BL/6J mouse assessed as change in calcium level at 200 mg/kg twice daily for 60 days relative to control; type: organism-based; details: in vivo, 1440 h, time 60 day
[29] = test system: Platelet; experiment: Antiplatelet activity in human platelet on collagen-coated surface assessed as shear rate pre-incubated at 0.5 mM measured after 3 hrs by fluorescent microscopy (reference value: 100 =/- 7%); type: functional
[30] = Inhibition of thrombin-stimulated human platelet aggregation by measuring aggregation at 0.50 mM measured after 3 hrs by scanning electron microscopy; type: functional; set-up: scale not given: the % may be the effect or the level left; details: dose 0.5 mM
[31] = Toxicity in C57BL/6J mouse assessed as change in mean platelet volume at 200 mg/kg twice daily for 60 days relative to control; type: organism-based; details: in vivo, 1440 h, time 60 day
[32] = test system: Mus musculus; experiment: Antithrombotic activity in transient focal cerebral ischemic mouse model occlusion induced 60 mins of the right middle cerebral artery followed by reperfussion 23 hrs assessed as decrease in mortality rate at 200 mg/kg, po twice daily for 7 days […]; type: functional, organism-based; details: time 7.0 day
[33] = test system: Mus musculus; experiment: Antithrombotic activity in calcein-labelled platelet-mediated ferric chloride-induced arterial injury thrombosis C57BL/6J mouse model assessed as average time to occlusive thrombosis at 50 mg/kg, po administrated twice a day measured upto 7 days (reference value: 7.9 +/- 0.7 min); type: functional; details: time day <=7
[34] = Suppression of P-selectin expression in thrombin-stimulated human platelets by measuring CD62P positive platelets at 0.10 mM after 3 hrs by flow cytometry analysis (reference value: 78.2%); type: functional; details: Platelet, at 0.1 mM

CN(C)C(=N)NC(=N)NS(=O)(=O)C(F)(F)F
Time [1]: 22.1 min
inhibition [2]: Active
Activity [3]: Non-Toxic
level, % of control at 50 µM [4]: 74.3%
level, % of control at 100 µM [5]: 44.5%
Activity [6]: 1.5 mm
Activity [7]: Non-Toxic
Activity [8]: Non-Toxic
Activity [9]: Non-Toxic
Activity [10]: Non-Toxic
level, % of control at 10 µM [11]: 72.8%
Activity [12]: Non-Toxic
Activity [13]: Non-Toxic
level, % of control at 1000 µM [14]: 46.6%
Activity [15]: Non-Toxic
Cmax [16]: 24300 ng/mL
Activity [17]: Active
level, % of control at 10 µM [18]: 84.2%
Activity [19]: 1.1 mg
Activity [20]: 0.4 mg
Activity [21]: Active
Activity [22]: 19.5%
Activity [23]: 62.2%
Time [24]: 21.2 min
Activity [25]: Non-Toxic
Activity [26]: Non-Toxic
Activity [27]: 70%
Activity [28]: Non-Toxic
Activity [29]: 37%
Activity [30]: 21%
Activity [31]: Non-Toxic
Activity [32]: Active
Time [33]: 10.1 min
level, % of control at 100 µM [34]: 54.7%
